We go through 26 compounds from patent US10889555B2, “Sulfonamide compound or salt thereof” (Taiho Pharmaceutical Co., Ltd., priority 2016, dated 2021).

The subject of the assay is HCC 1806 cells. The assay is described as follows: Cell proliferation inhibitory effect on human breast cancer cell line (crystal violet, 72 hours). In kind it is cell-based. The note with it: Homo sapiens, HCC1806, 72 h, read-out: Cell growth suppression IC50. Put shortly: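 Cells were seeded at 2,000/well in RPMI-1640 with 10% FBS and grown 1 day, then exposed to compound for 72 h at 37° C, 5% CO2. After glutaraldehyde fixation and 0.05% crystal violet staining, extracted dye was read at 540 nm. IC50 (μM) came from growth inhibition relative to untreated and cell-free wells.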
For the compound `Cc1ccc(F)c([C@@H](C)[C@H](NS(=O)(=O)c2ccc(Cl)cc2OC(F)F)c2n[nH]c(=O)o2)c1C` [Example 146, 4-chloro-2-(difluoromethoxy)-N-((1S,2R)-2-(6-fluoro-2,3-dimethylphenyl)-1-(5-oxo-4,5-dihydro-1,3,4-oxadiazol-2-yl)propyl)benzenesulfonamide], the IC50 (commonly the point on the concentration scale where inhibition reaches its midpoint) was 830 nM.

On to `CC(=O)c1cc(Cl)ccc1S(=O)(=O)N[C@H](c1n[nH]c(=O)o1)[C@H](C)c1c(F)ccc(C)c1C` [Example 147, 2-acetyl-4-chloro-N-((1S,2R)-2-(6-fluoro-2,3-dimethylphenyl)-1-(5 oxo-4,5-dihydro-1,3,4-oxadiazol-2-yl)propyl)benzenesulfonamide], for which the IC50 was determined as 650 nM.

`COc1nc(Cl)ccc1S(=O)(=O)N[C@H](c1n[nH]c(=O)o1)[C@H](C)c1c(F)ccc(C)c1C` [Example 148]: the IC50 amounted to 400 nM.

In the case of `Cc1ccc(F)c([C@@H](C)[C@H](NS(=O)(=O)c2ccc(Cl)c3cccnc23)c2n[nH]c(=O)o2)c1C` [Example 153, 5-chloro-N-((1S,2R)-2-(6-fluoro-2,3-dimethylphenyl)-1-(5-oxo-4,5-dihydro-1,3,4-oxadiazol-2-yl)propyl)quinoline-8-sulfonamide], the IC50 came to 910 nM.

Consider `Cc1ccc(F)c([C@@H](C)[C@H](NS(=O)(=O)c2ccc(Cl)c(C(=O)N3CCC4(CC3)COC4)n2)c2n[nH]c(=O)o2)c1C` [Example 156, 5-chloro-N-((1S,2R)-2-(6-fluoro-2,3-dimethylphenyl)-1-(5-oxo-4,5-dihydro-1,3,4-oxadiazol-2-yl)propyl)-6-(2-oxa-7-azaspiro[3.5]nonane-7-carbonyl)pyridine-2-sulfonamide], for which the IC50 came out at 870 nM.

Take `CC(=O)NC1CCOc2c(S(=O)(=O)N[C@H](c3n[nH]c(=O)o3)[C@H](C)c3c(F)ccc(C)c3C)ccc(Cl)c21` (stereo partly drawn) [Example 157, N-(5-chloro-8-(N-((1S,2R)-2-(6-fluoro-2,3-dimethylphenyl)-1-(5-oxo-4,5-dihydro-1,3,4-oxadiazol-2-yl)propyl)sulfamoyl)chroman-4-yl)acetamide]: the IC50 stood at 370 nM.

With `CC(=O)OC1(C)CCOc2c(S(=O)(=O)N[C@H](c3n[nH]c(=O)o3)[C@H](C)c3c(F)ccc(Br)c3C)ccc(Cl)c21` (stereo partly drawn) [Example 167, 8-(N-((1S,2R)-2-(3-bromo-6-fluoro-2-methylphenyl)-1-(5-oxo-4,5-dihydro-1,3,4-oxadiazol-2-yl)propyl)sulfamoyl)-5-chloro-4-methylchroman-4-yl-acetate], the IC50 amounted to 140 nM.

`Cc1ccc(F)c([C@@H](C)[C@H](NS(=O)(=O)c2ccc(F)c(C(C)(C)O)c2F)c2n[nH]c(=O)o2)c1C` [Example 186, 2,4-difluoro-N-((1S,2R)-2-(6-fluoro-2,3-dimethylphenyl)-1-(5-oxo-4,5-dihydro-1,3,4-oxadiazol-2-yl)propyl)-3-(2-hydroxypropan-2-yl)benzenesulfonamide]: the IC50 came to 640 nM.

For the compound `Cc1ccc(F)c([C@@H](C)[C@H](NS(=O)(=O)c2ccc(Cl)c(C(C)(C)O)n2)c2n[nH]c(=O)o2)c1C` [Example 193, 5-chloro-N-((1S,2R)-2-(6-fluoro-2,3-dimethylphenyl)-1-(5-oxo-4,5-dihydro-1,3,4-oxadiazol-2-yl)propyl)-6-(2-hydroxypropan-2-yl)pyridine-2-sulfonamide], the IC50 worked out at 110 nM.

In the case of `Cc1ccc(F)c([C@@H](C)[C@H](NS(=O)(=O)c2cc(C(C)(C)O)c(F)cc2C(N)=O)c2n[nH]c(=O)o2)c1C` [Example 196, 5-fluoro-2-(N-((1S,2R)-2-(6-fluoro-2,3-dimethylphenyl)-1-(5-oxo-4,5-dihydro-1,3,4-oxadiazol-2-yl)propyl)sulfamoyl)-4-(2-hydroxypropan-2-yl)benzamide], the IC50 was 320 nM.

`Cc1ccc(F)c([C@@H](C)[C@H](NS(=O)(=O)c2cc(C(C)(C)O)ccc2C(N)=O)c2n[nH]c(=O)o2)c1C` [Example 197, 2-(N-((1S,2R)-2-(6-fluoro-2,3-dimethylphenyl)-1-(5-oxo-4,5-dihydro-1,3,4-oxadiazol-2-yl)propyl)sulfamoyl)-4-(2-hydroxypropan-2-yl)benzamide]: the IC50 was 410 nM.

For `Cc1ccc(F)c([C@@H](C)[C@H](NS(=O)(=O)c2cc(C(C)(C)O)c(Cl)cc2C(N)=O)c2n[nH]c(=O)o2)c1C` [Example 198, 5-chloro-2-(N-((1S,2R)-2-(6-fluoro-2,3-dimethylphenyl)-1-(5-oxo-4,5-dihydro-1,3,4-oxadiazol-2-yl)propyl)sulfamoyl)-4-(2-hydroxypropan-2-yl)benzamide], the IC50 came to 50 nM.

Regarding `COc1c(S(=O)(=O)N[C@H](c2n[nH]c(=O)o2)[C@H](C)c2cccc(C)c2C)ccc(Cl)c1C(C)O` (stereo partly drawn) [Example 203, 4-chloro-N-((1S,2R)-2-(2,3-dimethylphenyl)-1-(5-oxo-4,5-dihydro-1,3,4-oxadiazol-2-yl)propyl)-3-(1-hydroxyethyl)-2-methoxybenzenesulfonamide], the half-maximal inhibitory concentration (IC50) turned out to be 810 nM.

For the compound `COc1c(S(=O)(=O)N[C@H](c2n[nH]c(=O)o2)[C@H](C)c2c(F)ccc(C)c2C)ccc(Cl)c1C(C)O` (stereo partly drawn) [Example 204, 4-chloro-N-((1S,2R)-2-(6-fluoro-2,3-dimethylphenyl)-1-(5-oxo-4,5-dihydro-1,3,4-oxadiazol-2-yl)propyl)-3-(1-hydroxyethyl)-2-methoxybenzenesulfonamide], the IC50 came to 150 nM.

For `COc1c(S(=O)(=O)N[C@H](c2n[nH]c(=O)o2)[C@H](C)c2c(F)ccc3ccccc23)ccc(Cl)c1C(C)O` (stereo partly drawn) [Example 205, 4-chloro-N-((1S,2R)-2-(2-fluoronaphthalene-1-yl)-1-(5-oxo-4,5-dihydro-1,3,4-oxadiazol-2-yl)propyl)-3-(1-hydroxyethyl)-2-methoxybenzenesulfonamide], the IC50 stood at 250 nM.

Consider `CCc1ccc(F)c([C@@H](C)[C@H](NS(=O)(=O)c2ccc(Cl)c(C(C)O)c2OC)c2n[nH]c(=O)o2)c1C` (stereo partly drawn) [Example 206A, 4-chloro-N-((1S,2R)-2-(3-ethyl-6-fluoro-2-methylphenyl)-1-(5-oxo-4,5-dihydro-1,3,4-oxadiazol-2-yl)propyl)-3-(1-hydroxyethyl)-2-methoxybenzenesulfonamide], for which the IC50 turned out to be 570 nM.

On to `Cc1ccc(F)c([C@@H](C)[C@H](NS(=O)(=O)c2cccc3c2OCCC3(O)C(F)(F)F)c2n[nH]c(=O)o2)c1C` (stereo partly drawn) [Example 211A, N-((1S,2R)-2-(6-fluoro-2,3-dimethylphenyl)-1-(5-oxo-4,5-dihydro-1,3,4-oxadiazol-2-yl)propyl)-4-hydroxy-4-(tifluoromethyl)chroman-8-sulfonamide], for which the IC50 came to 850 nM.

Take `COc1c(S(=O)(=O)N[C@H](c2n[nH]c(=O)o2)[C@H](C)c2c(F)ccc(C)c2C)ccc(Cl)c1C(C)(C)O` [Example 212, 4-chloro-N-((1S,2R)-2-(6-fluoro-2,3-dimethylphenyl)-1-(5-oxo-4,5-dihydro-1,3,4-oxadiazol-2-yl)propyl)-3-(2-hydroxypropan-2-yl)-2-methoxybenzenesulfonamide]: the IC50 was 260 nM.

With `COc1c(S(=O)(=O)N[C@H](c2n[nH]c(=O)o2)[C@H](C)c2c(F)ccc(C)c2C)ncc(Cl)c1C(C)O` (stereo partly drawn) [Example 216, 5-chloro-N-((1S,2R)-2-(6-fluoro-2,3-dimethylphenyl)-1-(5-oxo-4,5-dihydro-1,3,4-oxadiazol-2-yl)propyl)-4-(1-hydroxyethyl)-3-methoxypyridine-2-sulfonamide], the IC50 came to 670 nM.

Regarding `Cc1cccc2cccc([C@@H](C)[C@H](NS(=O)(=O)c3ccc(Cl)c4c3OCCC4O)c3n[nH]c(=O)o3)c12` (stereo partly drawn) [Example 232, 5-chloro-4-hydroxy-N-((1S,2R)-2-(8-methylnaphthalene-1-yl)-1-(5-oxo-4,5-dihydro-1,3,4-oxadiazol-2-yl)propyl)chroman-8-sulfonamide], the IC50 is 330 nM.

Consider `C[C@H](c1c(F)ccc2ccccc12)[C@H](NS(=O)(=O)c1ccc(Cl)c2c1OCCC2O)c1n[nH]c(=O)o1` (stereo partly drawn) [Example 233, 5-chloro-N-((1S,2R)-2-(2-fluoronaphthalene-1-yl)-1-(5-oxo 4,5-dihydro-1,3,4-oxadiazol-2-yl)propyl)-4-hydroxychroman-8-sulfonamide], for which the IC50 was determined as 280 nM.

With `Cc1ccc(F)c([C@@H](C)[C@H](NS(=O)(=O)c2ccc(F)c3c2OCCC3O)c2n[nH]c(=O)o2)c1C` (stereo partly drawn) [Example 241, 5-fluoro-N-((1S,2R)-2-(6-fluoro-2,3-dimethylphenyl)-1-(5-oxo-4,5-dihydro-1,3,4-oxadiazol-2-yl)propyl)-4-hydroxychroman-8-sulfonamide], the IC50 is 490 nM.

On to `Cc1ccc(F)c([C@@H](C)[C@H](NS(=O)(=O)c2ncc(Cl)cc2C(N)=O)c2n[nH]c(=O)o2)c1C` [Example 245, 5-chloro-2-(N-((1S,2R)-2-(6-fluoro-2,3-dimethylphenyl)-1-(5-oxo-4,5-dihydro-1,3,4-oxadiazol-2-yl)propyl)sulfamoyl)nicotinamide], for which the IC50 came out at 150 nM.

As to `Cc1c(Cl)ccc(F)c1[C@@H](C)[C@H](NS(=O)(=O)c1ncc(Cl)cc1C(N)=O)c1n[nH]c(=O)o1` [Example 249, 5-chloro-2-(N-((1S,2R)-2-(3-chloro-6-fluoro-2-methylphenyl)-1-(5-oxo-4,5-dihydro-1,3,4-oxadiazol-2-yl)propyl)sulfamoyl)nicotinamide], the IC50 was determined as 140 nM.

On to `Cc1ccc(F)c([C@@H](C)[C@H](NS(=O)(=O)c2ncc(Br)cc2C(N)=O)c2n[nH]c(=O)o2)c1C` [Example 250, 5-bromo-2-(N-((1S,2R)-2-(6-fluoro-2,3-dimethylphenyl)-1-(5-oxo-4,5-dihydro-1,3,4-oxadiazol-2-yl)propyl)sulfamoyl)nicotinamide], for which the IC50 is 120 nM.

Consider `CNC(=O)c1nc(S(=O)(=O)N[C@H](c2n[nH]c(=O)o2)[C@H](C)c2c(F)ccc(C)c2C)ccc1Cl` [Example 252, 3-chloro-6-(N-((1S,2R)-2-(6-fluoro-2,3-dimethylphenyl)-1-(5-oxo-4,5-dihydro-1,3,4-oxadiazol-2-yl)propyl)sulfamoyl)-N-methylpicolinamide], for which the IC50 amounted to 740 nM.
